Laboratory results taken from ChEMBL document CHEMBL1154517, “Antimitotic activity of two macrocyclic bis(bibenzyls), isoplagiochins A and B from the Liverwort Plagiochila fruticosa” (Bioorg Med Chem Lett, 2009).

Assay: Inhibition of tubulin polymerization

Compound | IC50 | Activity
Oc1ccc2c(c1)CCc1ccc(O)c(c1)-c1cc(ccc1O)CCc1cccc(c1)O2 [DIHYDROISOPLAGIOCHIN A] | > 100 µM | –
Oc1ccc2c(c1)CCc1ccc(O)c(c1)-c1cc(ccc1O)/C=C\c1cccc(c1)O2 [ISOPLAGIOCHIN A] | 50 µM | –

More lines, now with the values ahead:

IC50 | Activity | Compound
> 100 µM | – | Oc1ccc2cc1-c1cc(ccc1O)CCc1c(ccc(O)c1O)Oc1cccc(c1)CC2 [DIHYDROISOPLAGIOCHIN B]
25 µM | Dose-dependent effect | Oc1ccc2cc1-c1cc(ccc1O)CCc1c(ccc(O)c1O)Oc1cccc(c1)/C=C\2 [ISOPLAGIOCHIN B]
2 µM | – | CC[C@]1(O)C[C@@H]2CN(CCc3c([nH]c4ccccc34)[C@@](C(=O)OC)(c3cc4c(cc3OC)N(C)[C@H]3[C@@](O)(C(=O)OC)[C@H](OC(C)=O)[C@]5(CC)C=CCN6CC[C@]43[C@@H]65)C2)C1 [VINBLASTINE]
